Here are results for six compounds from publication PMC6153520, “Proteasome inhibition and mechanism of resistance to a synthetic, library-based hexapeptide” (Investigational New Drugs, 2018).

Like-named read-outs stand apart in the source and are kept apart here. Where a SMILES comes first, the peptide text is derived from it. The star is where a group is joined. Cbz = O=C(OCc1ccccc1)*; NHBn = c1ccc(CN*)cc1; OBn = c1ccc(CO*)cc1; Bn = c1ccc(C*)cc1; OtBu = CC(C)(C)O*

For orientation: IC50 means the concentration needed to halve the response being measured. As usually defined, the GI50 is the concentration at which growth is held to half of that of the control.

Assay [1] has as its target T1, chymotrypsin-like proteasome activity (Homo sapiens, UniProt P28074).
T1 construct: chymotrypsin-like proteasome activity in intact THP1 cells after 1 h exposure; endogenous in cells; host or cells: THP1 (wild type)
Put plainly: Proteasome-Glo cell-based assay in intact THP1 cells. To be noted: 1 h exposure, mean of 3 experiments ± S.D., read-out: IC50, inhibition of chymotrypsin-like proteasome activity.

The test system of assay [2] is THP1/WT. In kind it is cell-based, human. To be noted: 72 h. The protocol:
Human monocytic/macrophage THP1 cells (ATTC, Manassas, USA) were cultured in RPMI-1640 medium supplemented with 5% fetal calf serum, 20 mM HEPES, 2 mM glutamine and 100 μg/ml penicillin/ streptomycin at 5% CO2 and 37 °C. Cell cultures were seeded at a density of 3 × 10^5 cells/ml and refreshed twice weekly. […] Some specific experiments also included THP1/BTZ100 cells that were cultured in the absence of BTZ for 6 months (further designated as THP1/BTZ (−100) cells). Mouse thymoma EL4 and human multiple myeloma H929 cells were cultured in RPMI-1640 medium supplemented with 8% fetal calf serum and 100 μg/ml penicillin/streptomycin at 5% CO2 and 37 °C.
(§1) Evaluation of drug sensitivity was carried out as described before. Cells were seeded at an initial density of 1.25 × 10^5 cells/ml in individual wells of a 24-well plate containing up to 50 μl of drug solutions. Inhibition of cell growth was determined after 72 h of incubation at 37 °C by determining the number of viable cells […] using trypan blue exclusion. The drug concentration required to inhibit cell growth by 50% compared to untreated controls was defined as the IC50.

Assay [3] relates to HS 578T. Put plainly: NCI60 tumor cell line screen. Format: cell-based. To be noted: Homo sapiens, Breast, 48 h drug exposure, read-out: LOG10 GI50 (converted).
In assay [4] the test system is CCRF-CEM. Put plainly: NCI60 tumor cell line screen. In kind it is cell-based. To be noted: Homo sapiens, Leukemia, 48 h drug exposure, read-out: LOG10 GI50.
Assay [5] concerns DU-145. Briefly: NCI60 tumor cell line screen. The settings on record: Homo sapiens, Prostate, 48 h drug exposure, read-out: LOG10 GI50 (converted). Format: cell-based.
In assay [6] the test system is SK-OV-3. Put plainly: NCI60 tumor cell line screen. Format: cell-based. To be noted: Homo sapiens, Ovarian, 48 h drug exposure, read-out: LOG10 GI50 (converted).
For assay [7], the system named is THP1/BTZ200. The settings on record: relative to THP1/WT; ref Oerlemans et al. [46]; cited from earlier work.
The test system of assay [8] is SK-MEL-5. Put plainly: NCI60 tumor cell line screen. In kind it is cell-based. To be noted: Homo sapiens, Melanoma, 48 h drug exposure, read-out: LOG10 GI50 (converted).
For assay [9], the system named is NCI-H226. Briefly: NCI60 tumor cell line screen. In kind it is cell-based. The settings on record: Homo sapiens, NSC Lung, 48 h drug exposure, read-out: LOG10 GI50 (converted).
In assay [10] the test system is THP1/WT cells. Put plainly: Western blot, accumulation of ubiquitinated proteins. In kind it is cell-based, human. The settings on record: 24 h exposure. The protocol:
Western blot analysis to determine protein levels of (i) β1, β2 and β5 proteasome subunits and (ii) the accumulation of ubiquitinated proteins after treatment with 4A6 was performed essentially as described previously. Cells were harvested in the mid-log phase of growth and washed 3 times with ice-cold buffered saline pH 7.4. Total cell lysates of 5 × 10^6 cells were prepared by resuspension in 500 μl lysis buffer containing: 50 mM Tris-HCl (pH 7.6), 5 mM dithiotreitol, 20 μl PIC (Protease Inhibitor Cocktail; 1 tablet/ml H2O), 20% glycerol and 0.5% NP-40. The suspension was sonicated (MSE sonicator, amplitude 7, for 3 × 5 s with 20 s time intervals at 4 °C) and centrifuged in an Eppendorf micro centrifuge (5 min, 12,000 rpm, 4 °C). Protein content of the supernatant was determined by the Bio-Rad protein assay. 20–30 μg of total cell lysates were fractionated on a 10% polyacrylamide gel containing SDS and transferred onto a PVDF membrane. The membranes were pre-incubated overnight at 4 °C in blocking buffer (5% Bio-Rad Blocker in TBS-T; 10 mM Tris-HCl, pH 8.0, 0.15 M NaCl, 0.1% Tween-20) to prevent non-specific antibody binding. After blocking, the membranes were incubated for 1 h at room temperature with primary antibodies for proteasome subunit β1 (1:1000, PW8140), β2 (1:1000, PW8145) and β5 (1:1000, PW8895) or ubiquitin (1:1000, Santa-Cruz, SC-8017). An antibody to α-tubulin was used (1:1000, Santa Cruz, sc-8035) to check and normalize for any loading differences. After 3 washing steps with TBS-T, the membranes were incubated for 1 h with HRP-labelled donkey-anti-rabbit (1:6000, Amersham, UK) or goat-anti-mouse (1:6000, Dako, Glostrup, Denmark) as secondary antibody. Detection of antibody binding was followed by chemoluminescence using Supersignal (Pierce Biotechnology, Rockford, USA) according to the manufacturers’ instructions. […] The signal intensity was determined densitometrically using Quantity One software (Bio-Rad) and was expressed relative to the intensity of the α-tubulin signal.
For orientation: A western blot detects proteins with antibodies after separation by electrophoresis.

For assay [11], the system named is A549/ATCC. Put plainly: NCI60 tumor cell line screen. Format: cell-based. To be noted: Homo sapiens, NSC Lung, 48 h drug exposure, read-out: LOG10 GI50 (converted).
Assay [12] has as its system proteasome β-subunits. Put plainly: Proteasome affinity labelling and recovery in H929 cells. In kind it is cell-based, human. To be noted: 5 μM MG132 (1 h) or 20 nM bortezomib (1 h).
The test system of assay [13] is HT29. Put plainly: NCI60 tumor cell line screen. Format: cell-based. To be noted: Homo sapiens, HT-29, Colon, 48 h drug exposure, read-out: LOG10 GI50 (converted).
For assay [14], the system named is THP1 cells. Briefly: Growth inhibition with or without Ruthenium Red. Format: cell-based, human. The settings on record: 72 h, with or without 25 μM Ruthenium Red. The protocol:
as §1

Assay [15] concerns K-562. Briefly: NCI60 tumor cell line screen. To be noted: Homo sapiens, K562, Leukemia, 48 h drug exposure, read-out: LOG10 GI50 (converted). In kind it is cell-based.
The subject of assay [16] is NCI60 tumor cell line panel. Put plainly: NCI60 panel COMPARE analysis. In kind it is cell-based, human. The settings on record: mean log10GI50, 2 days of drug exposure.
Assay [17] concerns THP1/BTZ50. The settings on record: relative to THP1/WT; ref Oerlemans et al. [46]; cited from earlier work.
Assay [18] relates to β5 subunit of the proteasome. Also on record: method as in PMID 16286248, PMID 16455650. The settings on record: ref [15], [21]; read-out: IC50, proteasome inhibition; cited from earlier work.
For assay [19], the system named is SNB-75. Briefly: NCI60 tumor cell line screen. Format: cell-based. The settings on record: Homo sapiens, CNS, 48 h drug exposure, read-out: LOG10 GI50 (converted).
The test system of assay [20] is SNB-19. Briefly: NCI60 tumor cell line screen. In kind it is cell-based. To be noted: Homo sapiens, CNS, 48 h drug exposure, read-out: LOG10 GI50 (converted).
Assay [21] deals with COLO 205. Briefly: NCI60 tumor cell line screen. Format: cell-based. To be noted: Homo sapiens, Colon, 48 h drug exposure, read-out: LOG10 GI50 (converted).
Assay [22] concerns THP1/BTZ100. To be noted: relative to THP1/WT; ref Oerlemans et al. [46]; cited from earlier work.
In assay [23] the test system is THP1/WT. Also on record: method as in Oerlemans et al. [46]. The settings on record: ref Oerlemans et al. [46], cited from earlier work.
Assay [24] relates to THP1/WT cells. Put plainly: Apoptosis assay (Annexin-V/7-AAD flow cytometry). Format: cell-based, human. The settings on record: 24 h exposure. The protocol: (§2) Induction of apoptosis was analyzed by flow cytometry using APOPTEST™-FITC A700 (VPS Diagnostics, Hoeven, the Netherlands) according to the instructions of the manufacturer. In short, induction of apoptosis was determined after 24 h’ drug exposure. One million cells were harvested and washed 3 times with ice-cold PBS. The cell pellet was incubated for 30 min with 7-Amino-actinomycin D (7-AAD) on ice followed by incubation with Annexin-V according to the instructions of the manufacturer. Annexin-V (early apoptosis) and 7-AAD (late apoptosis) staining was measured by flow cytometry (Beckton & Dickinson, FACScalibur) and analysed using FCSexpress V3 software (Denovo software, Thornhill, Canada).
(In general: A flow cytometer gives signals particle by particle.)

Assay [25] concerns THP1/BTZ200 cells. Put plainly: Apoptosis assay (Annexin-V/7-AAD flow cytometry). In kind it is cell-based, human. To be noted: 24 h, 4A6 over 0–25 μM. The method, then:
as §2

Assay [26] in a line: Cell growth inhibitory potential of cleavage product (data not shown). In kind it is cell-based.
The test system of assay [27] is proteasome. Put plainly: Proteasome inhibitory effect of cleavage product (data not shown).

Turning to “4A6-dimer: dimer form of 4A6, contains the same amino acid sequence as 4A6 (THTXEG; The dimer linkage, and any protecti)”, the half-maximal inhibitory concentration (IC50) in assay [1] was 490 ± 120 nM.

In assay [2], `CC(=O)N[C@H](C(=O)N[C@@H](CCC(=O)OC(C)(C)C)C(=O)N[C@@H](CCC(=O)OCc1ccccc1)C(=O)N[C@@H](CC(=O)OC(C)(C)C)C(=O)N[C@@H](CCC(=O)OC(C)(C)C)C(=O)NCC(=O)NCc1ccccc1)[C@@H](C)OCc1ccccc1` [4E11, Ac-Thr(OBzl)-Glu(OtBu)-Glu(OBzl)-Asp(OtBu)-Glu(OtBu)-Gly-Bza] (Ac-T(Bn)E(OtBu)E(OBn)D(OtBu)E(OtBu)G-NHBn) displayed an IC50 of 3.9 ± 0.8 µM.

With `CC(C)C[C@H](NC(=O)[C@H](Cc1ccccc1)NC(=O)c1cnccn1)B(O)O` [Bortezomib, Pyrazylcarbonyl-Phe-Leu-boronate], the GI50 in assay [3] was 0.422 nM; in [4], 0.1 nM; in assay [5], 0.891 nM; in [6], 32.9 nM; in [8] it was 0.11 nM; in assay [9], 0.105 nM. Moreover, the GI50 in assay [11] is 2.44 nM; in [13], 0.389 nM; in assay [15] it was 0.422 nM; in [19], 1.95 nM; in assay [20], 0.724 nM; in [21], 0.363 nM. In addition, in [7], the “[Resistance Factor] THP1/BTZ200” value is recorded as 129. In assay [10], the “accumulation of ubiquitinated proteins” value is “marked accumulation of ubiquitinated proteins”. For the same compound, in [12], the “inhibition of β-subunit activity probing” value is on record as “predominantly inhibited β5-subunit probing”. Also, the “effect of Ruthenium Red on growth inhibitory activity (protection)” value in assay [14] is “marked abrogation”. Further, the “orders of magnitude more potent than 4A6” value in [16] was 2–3 orders of magnitude. For the same compound, the “[Resistance Factor] THP1/BTZ50” value in assay [17] was 45. Besides, the half-maximal inhibitory concentration (IC50) was 3 to 5 nM in [18] and 0.0033 ± 0.0006 µM in [23] (growth inhibition). Moreover, in assay [22], the “[Resistance Factor] THP1/BTZ100” value was 79. In addition, the “[Resistance Factor] THP1/WT” value in assay [23] (reference value in square brackets) is listed as 1.

As for `CC(C)C[C@@H](C=O)NC(=O)[C@H](CC(C)C)NC(=O)[C@H](CC(C)C)NC(=O)OCc1ccccc1` [MG132, Z-Leu-Leu-Leucinal] (Cbz-Leu-Leu-Leu-aldehyde), the “inhibition of β-subunit activity probing” value in assay [12] is “blocked activity probing of all β-subunits”.

Turning to `COc1cc([C@@H]2c3cc4c(cc3[C@@H](O[C@@H]3O[C@@H]5CO[C@@H](C)O[C@H]5[C@H](O)[C@H]3O)[C@H]3COC(=O)[C@H]23)OCO4)cc(OC)c1O` [etoposide, reference compound], the induction of apoptosis result in [24] and in [25] was “equally effective in inducing apoptosis” in each case.

Regarding Ac-Thr(tBu)-His(Bzl)-Thr(Bzl)-Nle-OH, the “cell growth inhibitory potential” value in assay [26] was “did not show any proteasome inhibitory effect or cell growth inhibitory potential”. In addition, the proteasome inhibitory effect result in [27] is “did not show any proteasome inhibitory effect”.
